Reference: EP0344708A2, “Composition for external application to skin” (LION CORPORATION, priority 1988, dated 1989)

How the values were obtained:
incised wound = assay: Incised wound healing in rats (tension needed to peel skin at the wound, tensile strength tester); assay type: in vivo, Wistar male rats; details: relative to control (physiological saline) = 100; Concn. 0.5 % in saline, subcutaneously once a day for 7 days, 0.67 ml/kg/day; tension measured 8 days after operation; 8 rats per group
From the text: Groups of Wistar male rats (SPF; each group comprising 8 animals) were anesthetized with Nembutal® pentobarbital sodium) injection and hair was removed from the back of each rat over a wide area. After disinfecting the area with alcohol, a sharp incised wound having a length of 4 cm was mesially formed with a scalpel and it was stitched up, with Mitchell needles, at three positions at regular intervals (the Mitchell needles were removed 4 days after the operation).
After forming incised wound, an effective component was dissolved in a saline solution and administered subcutaneously once a day for 7 days successively (dose: 0.67 m ℓ/kg/day). The animals were sacrificed 8 days after the operation, the skin of the wounded part was peeled off to remove subcutis followed by preparing three pieces of the skin perpendicular to the line of the incised wound, having a width of 1 cm, per rat and determining tention (g/cm) required for peeling off each piece of the skin at the incised wound portion utilizing a tensile strength tester. The relative value of the average of the measured tension with respect to that of the control was defined as an indication of the rate of healing of the wound. The results obtained are listed in Table III given below (the results are expressed in the value relative to that of the control which is defined as 100).

defective wound = assay: Circular defective wound in rats (weight of regenerated granulation); assay type: in vivo, Wistar male rats; details: relative to control (10% ethanol aqueous solution) = 100; Concn. 0.1 % in 10% ethanol aqueous solution, applied to wound twice a day, 1 ml per application, 5 days; granulation weight 6 days after wounding; 6 rats per group
Protocol: Groups of Wistar male rats (SPF; each group comprising 6 animals) were anesthetized and hair was removed from the back of each rat. Then a circular defective wound having a diameter of 12 mm was formed on the skin of the back from which hair had been removed.
After forming the defective wound, an effective component was dissolved in 10% ethanol aqueous solution and applied to the wounded portion twice a day in a dose of 1 mℓ per application for 5 days successively. 6 Days after the formation of the wound, the animals were sacrificed to cut off the formed granulation from the defective portion and the weight of the granulation was determined. The relative value of the average of the measured weight with respect to that of the control was defined as an indication of the rate of healing of the defective wound. The results obtained are listed in Table IV given below (the results are expressed in the value relative to that of the control which is defined as 100).

[1] = Stability of the compound in the used composition after the use test, HPLC; assay type: physicochemical; details: on the average, 131400 min

| rate of Compound I-A ·2Ca remaining in the milky lotion ([1]; in the used milky lotion (0.05 %) after completion of the 3-month test) | rate of Compound I-A ·6Na remaining in the beauty essence ([1]; in the used beauty essence (0.1 %) after completion of the 3-month test) | rate of the remaining Compound I-A ([1]; in the used toilet water (0.1 %) after completion of the 3-month test) | Structure (SMILES) | Rate of Relative Healing (incised wound) | Rate of Regenerated Granulation (defective wound) |
| --- | --- | --- | --- | --- | --- |
|  |  |  | CC(C)(COP(=O)(O)OP(=O)(O)OC[C@H]1O[C@@H](n2cnc3c(N)ncnc32)[C@H](O)[C@@H]1OP(=O)(O)O)[C@@H](O)C(=O)NCCC(=O)NCCS [Coenzyme A ·3Na, reference compound] | 117 | 119 |
| 98.8% |  |  | CC(C)(COP(=O)(O)OP(=O)(O)OC[C@H]1O[C@@H](n2cnc3c(N)ncnc32)[C@H](O)[C@@H]1OP(=O)(O)O)[C@@H](O)C(=O)NCCC(=O)NCCSSCCNC(=O)CCNC(=O)[C@H](O)C(C)(C)COP(=O)(O)OP(=O)(O)OC[C@H]1O[C@@H](n2cnc3c(N)ncnc32)[C@H](O)[C@@H]1OP(=O)(O)O [Compound I-A ·2Ca] |  |  |
|  | 98.5% |  | CC(C)(COP(=O)(O)OP(=O)(O)OC[C@H]1O[C@@H](n2cnc3c(N)ncnc32)[C@H](O)[C@@H]1OP(=O)(O)O)[C@@H](O)C(=O)NCCC(=O)NCCSSCCNC(=O)CCNC(=O)[C@H](O)C(C)(C)COP(=O)(O)OP(=O)(O)OC[C@H]1O[C@@H](n2cnc3c(N)ncnc32)[C@H](O)[C@@H]1OP(=O)(O)O [Compound I-A ·6Na] | 126 | 148 |
|  |  | 97.8% | CC(C)(COP(=O)(O)OP(=O)(O)OC[C@H]1O[C@@H](n2cnc3c(N)ncnc32)[C@H](O)[C@@H]1OP(=O)(O)O)[C@@H](O)C(=O)NCCC(=O)NCCSSCCNC(=O)CCNC(=O)[C@H](O)C(C)(C)COP(=O)(O)OP(=O)(O)OC[C@H]1O[C@@H](n2cnc3c(N)ncnc32)[C@H](O)[C@@H]1OP(=O)(O)O [Compound I-A] |  |  |
